pIC50: −log10 of the molar value. Positions of bridges follow the written chain, without caps; N, C: chain ends. Non-standard residues stand in square brackets, D forms with d. Residues, ends and D or L forms follow the SMILES beside them. Pen = CC(C)(S)[C@H](N)C(=O)O
Key:
A-375 = assay: Inhibition of cell adhesion in human A-375 cells; assay type: functional, cell-based
HBL-100 = assay: Inhibition of cell adhesion in human HBL-100 cells; assay type: functional, cell-based
HT-1080 = assay: Inhibition of cell adhesion in human HT-1080 cells; assay type: functional, cell-based
Integrin alpha-5/beta-1 = Integrin alpha-5/beta-1 (Homo sapiens, UniProt P05556+P08648); assay: Binding affinity to integrin alpha5beta1 (unknown origin) assessed as inhibition of integrin and fibronectin interaction; assay type: protein-complex assay
Integrin alpha-5/beta-1, sequence (P05556 21-798 limits assumed): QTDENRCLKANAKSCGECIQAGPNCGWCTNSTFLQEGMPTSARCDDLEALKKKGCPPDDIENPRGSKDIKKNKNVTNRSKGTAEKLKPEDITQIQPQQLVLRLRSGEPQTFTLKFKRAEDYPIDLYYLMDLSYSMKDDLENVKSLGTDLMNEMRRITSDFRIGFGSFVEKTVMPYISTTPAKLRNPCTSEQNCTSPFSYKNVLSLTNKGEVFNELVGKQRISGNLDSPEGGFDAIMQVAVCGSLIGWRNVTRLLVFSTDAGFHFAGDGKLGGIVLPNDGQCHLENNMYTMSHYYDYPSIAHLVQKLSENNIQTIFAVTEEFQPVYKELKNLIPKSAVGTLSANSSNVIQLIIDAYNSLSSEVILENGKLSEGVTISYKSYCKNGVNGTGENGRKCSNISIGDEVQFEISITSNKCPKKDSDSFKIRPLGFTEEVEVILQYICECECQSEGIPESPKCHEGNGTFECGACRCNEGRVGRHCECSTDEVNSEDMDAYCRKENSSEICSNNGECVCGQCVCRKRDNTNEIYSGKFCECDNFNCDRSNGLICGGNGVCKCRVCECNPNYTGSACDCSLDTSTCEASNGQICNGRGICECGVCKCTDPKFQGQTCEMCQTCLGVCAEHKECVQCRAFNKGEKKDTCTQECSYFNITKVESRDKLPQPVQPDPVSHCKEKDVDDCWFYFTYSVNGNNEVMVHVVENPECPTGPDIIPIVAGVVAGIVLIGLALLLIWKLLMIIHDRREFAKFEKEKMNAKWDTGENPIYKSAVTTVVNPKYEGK
Integrin alpha-5/beta-1, sequence (P08648 42-894 limits assumed): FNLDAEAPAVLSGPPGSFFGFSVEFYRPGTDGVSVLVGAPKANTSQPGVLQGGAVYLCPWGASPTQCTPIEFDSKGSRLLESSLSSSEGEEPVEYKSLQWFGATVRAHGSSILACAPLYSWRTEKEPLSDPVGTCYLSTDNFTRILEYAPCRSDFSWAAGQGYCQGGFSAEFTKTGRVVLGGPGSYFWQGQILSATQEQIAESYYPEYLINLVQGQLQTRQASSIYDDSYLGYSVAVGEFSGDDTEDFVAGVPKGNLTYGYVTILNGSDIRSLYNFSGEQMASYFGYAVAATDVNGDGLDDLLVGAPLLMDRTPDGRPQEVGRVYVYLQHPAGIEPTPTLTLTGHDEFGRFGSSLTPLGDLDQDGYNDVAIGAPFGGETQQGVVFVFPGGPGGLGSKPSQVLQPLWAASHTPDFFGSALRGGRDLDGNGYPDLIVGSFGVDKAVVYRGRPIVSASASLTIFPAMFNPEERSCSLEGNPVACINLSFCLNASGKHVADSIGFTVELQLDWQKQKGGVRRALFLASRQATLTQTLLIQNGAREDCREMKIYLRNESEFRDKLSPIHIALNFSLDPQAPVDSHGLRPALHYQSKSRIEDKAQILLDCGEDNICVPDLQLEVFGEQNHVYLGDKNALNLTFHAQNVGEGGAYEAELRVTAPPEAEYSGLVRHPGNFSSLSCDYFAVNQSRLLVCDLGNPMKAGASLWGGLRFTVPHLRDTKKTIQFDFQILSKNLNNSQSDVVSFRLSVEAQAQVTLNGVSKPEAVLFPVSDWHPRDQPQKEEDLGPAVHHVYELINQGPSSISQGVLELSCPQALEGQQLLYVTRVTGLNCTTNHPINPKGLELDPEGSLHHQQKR
Integrin alpha-5/beta-1, sequence (P08648 895-1049 limits assumed): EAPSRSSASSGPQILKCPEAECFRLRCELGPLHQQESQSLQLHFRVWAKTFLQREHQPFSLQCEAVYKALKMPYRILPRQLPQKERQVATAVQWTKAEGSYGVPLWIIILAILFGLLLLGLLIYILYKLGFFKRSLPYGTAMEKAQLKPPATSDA

CC(=O)N[C@H]1CSSC(C)(C)[C@@H](C(N)=O)NC(=O)[C@H](Cc2ccccc2)NC(=O)[C@H](CC(=O)O)NC(=O)CNC(=O)[C@H](CCCNC(=N)N)NC1=O (Ac-CRGDF[Pen]-NH2; disulfide 1-6)
pIC50 (A-375): 7.00 | pIC50 (HBL-100): 7.00 | pIC50 (HT-1080): 7.00

CC[C@H](C)[C@H](NC(=O)[C@@H](N)C(C)C)C(=O)N[C@@H](CC(C)C)C(=O)N[C@H](C(=O)N[C@@H](CC(C)C)C(=O)N[C@@H](Cc1ccccc1)C(=O)O)C(C)C (H-VILVLF-OH)
pIC50 (Integrin alpha-5/beta-1): 5.81
